How the values were obtained:
[1] = Binding affinity to alpha-2delta calcium channel
Mus musculus [2] = assay: Protection of DBA/2 mouse against audiogenic-induced tonic seizure at 30 mg/kg, po after 1 hr; type: functional
Mus musculus [3] = assay: Protection of DBA/2 mouse against audiogenic-induced tonic seizure at 30 mg/kg, po after 2 hrs; type: functional

SMILES | Ki [1] | Activity (Mus musculus [2]) | Activity (Mus musculus [3])
NCC(c1nnn[nH]1)C1CCCC1 (stereo not given) | 18 nM | – | –
NCC(CCCCCc1ccccc1)c1nnn[nH]1 (stereo not given) | 500 nM | – | –
CC(C)C(CN)c1nnn[nH]1 (stereo not given) | 130 nM | – | –
NCC1(c2nnn[nH]2)CC12CCCCC2 (stereo not given) | 33 nM | – | –
CC(CN)(Cc1ccccc1)c1nnn[nH]1 (stereo not given) | 900 nM | – | –
CC(CN)(Cc1ccc(F)c(F)c1)c1nnn[nH]1 (stereo not given) | 520 nM | – | –
CC(CN)(Cc1cccc(C(F)(F)F)c1)c1nnn[nH]1 (stereo not given) | 160 nM | – | –
CC(C)CCC(CN)c1nnn[nH]1 (stereo not given) | 210 nM | – | –
NCC(CC1CCCCC1)c1nnn[nH]1 (stereo not given) | 570 nM | – | –
CC(C)C1CC1(CN)c1nnn[nH]1 (stereo not given) | 190 nM | – | –
NCC(c1ccccc1)c1nnn[nH]1 (stereo not given) | > 10000 nM | – | –
CCCC(CCC)CC(CN)c1nnn[nH]1 (stereo not given) | 280 nM | – | –
NCC(CCCCc1ccccc1)c1nnn[nH]1 (stereo not given) | 130 nM | – | –
CCC(CC)C1CC1(CN)c1nnn[nH]1 (stereo not given) | 4000 nM | – | –
NCC(Cc1ccccc1)(Cc1ccccc1)c1nnn[nH]1 | > 10000 nM | – | –
CCC(CC)CC(CN)c1nnn[nH]1 (stereo not given) | 11 nM | 60% | 100%
NCCc1nnn[nH]1 | > 10000 nM | – | –
NCC(c1nnn[nH]1)C1CCCCC1 (stereo not given) | 150 nM | – | –
NCC(CCc1ccccc1)c1nnn[nH]1 (stereo not given) | 3100 nM | – | –
CC(C)(CN)c1nnn[nH]1 | > 10000 nM | – | –
CC(C)CC(CN)c1nnn[nH]1 (stereo not given) | 17 nM | 40% | 80%
NCC(CCCc1ccccc1)c1nnn[nH]1 (stereo not given) | 2100 nM | – | –
CCCCCCC(CN)c1nnn[nH]1 (stereo not given) | 330 nM | – | –
CC(C)C[C@H](CN)CC(=O)O [PREGABALIN] | – | 100% | 100%
NCC(Cc1ccccc1)c1nnn[nH]1 (stereo not given) | 7600 nM | – | –
